In publication PMC8838521, “Antimicrobial, Cytotoxic and Mutagenic Activity of Gemini QAS Derivatives of 1,4:3,6-Dianhydro-L-iditol” (Molecules, 2022):
Like-named read-outs stand apart in the source and are kept apart here.

Tests used:
[1] = test system: Staphylococcus aureus ATCC 25923; assay: Antimicrobial activity, microdilution MIC, S. aureus reference strain; format: cell-based; conditions: for MIC: Staphylococcus aureus, ATCC25923, 24 h
Description: (§1) The antimicrobial potential of the tested agents was evaluated against two reference strains of bacteria: Staphylococcus aureus ATCC 25923 and Escherichia coli K12, two reference strains of pathogenic yeasts, Candida albicans ATCC10231 and Candida glabrata DSMZ11226, as well as 20 strains of clinical isolates of S. aureus collected from patients with skin and soft tissue infections (n = 8) and strains derived from subclinical bovine mastitis milk samples (n = 12). Four of these strains, two isolated from human infections and two isolated from bovine mastitis, were classified as MRSA (Methicillin-resistant Staphylococcus aureus). All of them were mecA positive and their methicillin resistance was confirmed with the disc diffusion assay. The remaining 16 strains were MSSA (Methicillin-sensitive Staphylococcus aureus). The assays were performed using a serial, two-fold dilution method in 96-well microtiter plates under conditions recommended by the Clinical and Laboratory Standards Institute (CLSI, Pittsburgh, PA, USA). The aim of this procedure was the determination of the MIC parameter (Minimum Inhibitory Concentration)—the minimum concentration of a tested agent capable to inhibit the growth of a specified strain of microorganism. The agents were solubilized in deionized, sterile water to a final concentration of […]. Subsequently, solutions were mixed (1:1 (v/v)) with 2 × concentrated liquid medium, Mueller-Hinton Broth 2—cation adjusted (MHB2) for evaluation of antibacterial activity and RPMI in the case of evaluation of the antifungal activity. […] Subsequently, the solutions were mixed with MHB2 or RPMI medium to get the final concentration of 8.192 mg/mL (8192 µg/mL). In the next step, the serial, two-fold dilutions of the tested agents (over the range of concentrations from 8192 to 8 µg/mL for reference strains of bacteria and yeasts and from 512 to 1.0 µg/mL for clinical isolates of S. aureus) were prepared in 96-well microtitration plates in the final volume of 100 μL of the appropriate medium.
(§2) The pure bacterial cultures of (both the reference and clinical strains) were grown on the Mueller-Hinton Agar (MHA) for 18–24 h at 37 °C. A small amount of the biomass of the culture of each strain of microorganisms was suspended in the sterile PBS (phosphate buffered saline, pH 7.4 at 25 °C, purchased from Sigma) solution to get an optical density OD600 = 0.13 (equal to the cells concentration approximately 1 × 10^8 CFU/mL). The obtained suspensions of the cells were next diluted 1:100 (v/v) in the MHB2 medium. One hundred µL of the cells’ suspension was finally loaded into the wells of plates prepared in advance, which contained 100 µL of two-fold dilutions of the tested agents (the final concentration of the bacterial cells in all wells was approximately 5 × 10^5 CFU/mL).
(§3) The pure cultures of yeast strains were grown on the Sabouraud Dextrose Agar (SDA) for 18–24 h at 37 °C. Suspensions of the microorganisms were prepared by taking one loop of pure culture into sterile water and adjusting optical density to 0.1 at 660 nm and further 50-fold dilution in RPMI 1640 medium resulting in cells concentration of approximate 2 × 10^4 CFU/mL. One hundred μL of that suspension was inoculated to the wells of the microtitration plate containing appropriate dilutions of the agents. The positive growth control of each strain (both bacteria and yeasts) was performed in the wells without the tested substances. The negative control containing only the media was included in each assay. Microtiter plates were incubated at 37 °C for 24 h. Following the incubation period, determination of the MIC values of the tested agents was carried out by measuring the absorbance at 531 nm using a Victor^3 microplate reader (Perkin Elmer, Inc., Waltham, MA, USA). The lowest concentration of the agent causing inhibition of growth equal to or higher than 90% (MIC90) of growth control was taken as the MIC value. Each test was repeated three times. […]

[2] = test system: human keratinocytes (HaCaT cell line); assay: Cytotoxicity, MTT assay; format: cell-based; conditions: Homo sapiens, HaCaT, read-out: HaCaT IC50
Description: To assess the cytotoxicity of QAS (IC50), the MTT assay on 96-well polystyrene plates was performed for human keratinocytes (HaCaT, Elabscience Biotechnology Inc., Houston, Texas, USA). The assay utilizes colorimetric determination of the cell metabolic activity and the color intensity reflects the number of live cells that can be measured spectrophotometrically. The cell line was cultured in a Dulbecco’s modified Eagle Medium (Invitrogen) supplemented with 10% fetal bovine serum (Sigma Aldrich) (v/v), 100 units/mL of penicillin, 100 μg/mL of streptomycin, and 2 mM L-glutamine and was stored at 37 °C in a humidified 5% CO2 incubator. Briefly, a day after plating of 500 cells per well, a series of concentrations (0.5–200 μg/mL) of the test compounds was applied. DMSO was added to the control cells at a final concentration of 1.0% (v/v), which was related to the maximal concentration of the solvent compounds used in the experiment. After 24 h of incubation with the QAS at 37 °C (humidified 5% CO2 incubator), a medium containing 1 mg/mL of MTT (3-(4,5-dimethylthiazol-2-yl)-2,5-diphenyltetrazolium bromide) was added to the wells up to a final concentration of 0.5 mg/mL. Subsequently, the plates were incubated at 37 °C for 4 h. Then, the medium was removed by suction, and the formazan product was solubilized with DMSO. The background absorbance at 630 nm was subtracted from that at 570 nm for each well (Epoch, BioTek Instruments, Winooski, VT, USA). Six replicates were conducted for each concentration. All experiments were repeated at least twice and the resulting IC50 values were calculated with GraFit 7 software (v. 7.0, Erithacus, Berkley, CA, USA).

[3] = test system: Salmonella typhimurium TA98 strain; conditions: TA98, no metabolic activation
Description: A Salmonella mutagenicity test was performed with Salmonella typhimurium TA98 strain (Xenometrics AG, Allschwil, Switzerland) without metabolic activation, following the procedure by Mortelmans and Zeiger [52], with modifications reported Golunski et al. [53] […] Subsequently, the mixture was centrifuged, bacterial pellet washed with 0.75% NaCl and resuspended in 300 µL of 0.75% NaCl solution containing 0.1 µmol each of histidine and biotin, and it was then spread on a glucose minimal (GM) plate. […] All experiments were performed in triplicate. The anticancer drug doxorubicin at 90 ng/plate with known mutagenic effect towards S. typhimurium TA98 was used as a positive control.

Escherichia coli K12 = assay: Antimicrobial activity, microdilution MIC, E. coli; format: cell-based; conditions: for MIC: Escherichia coli, K12, 24 h
Description: as §1, §2, §3

[4] = test system: Candida albicans ATCC 10231; assay: Antimicrobial activity, microdilution MIC, C. albicans; format: cell-based; conditions: for MIC: Candida albicans, ATCC10231, 24 h
Description: as §1
(§4) The pure cultures of yeast strains were grown on the Sabouraud Dextrose Agar (SDA) for 18–24 h at 37 °C. Suspensions of the microorganisms were prepared by taking one loop of pure culture into sterile water and adjusting optical density to 0.1 at 660 nm and further 50-fold dilution in RPMI 1640 medium resulting in cells concentration of approximate 2 × 10^4 CFU/mL. One hundred μL of that suspension was inoculated to the wells of the microtitration plate containing appropriate dilutions of the agents. The positive growth control of each strain (both bacteria and yeasts) was performed in the wells without the tested substances. The negative control containing only the media was included in each assay. Microtiter plates were incubated at 37 °C for 24 h. Following the incubation period, determination of the MIC values of the tested agents was carried out by measuring the absorbance at 531 nm using a Victor^3 microplate reader (Perkin Elmer, Inc., Waltham, MA, USA). The lowest concentration of the agent causing inhibition of growth equal to or higher than 90% (MIC90) of growth control was taken as the MIC value. Each test was repeated three times.

[5] = test system: Candida glabrata DSMZ 11226; assay: Antimicrobial activity, microdilution MIC, C. glabrata; format: cell-based; conditions: for MIC: Nakaseomyces glabratus, DSMZ11226, 24 h
Description: as §1, §4

[6] = Solubility observed during assays; format: physicochemical; conditions: observed during antimicrobial assays; DMSO used for solubilisation
[7] = MIC90, 24 h, MHB2, read-out: MIC S. aureus ATCC 25923
[8] = MIC90, 24 h, MHB2, read-out: MIC E. coli K12
[9] = MIC90, 24 h, RPMI, read-out: MIC C. albicans ATCC 10231
[10] = MIC90, 24 h, RPMI, read-out: MIC C. glabrata DSMZ 11226
[11] = read-out: MIC S. aureus ATCC 25923, MIC90, 24 h, MHB2
[12] = read-out: MIC E. coli K12, MIC90, 24 h, MHB2
[13] = read-out: MIC C. albicans ATCC 10231, MIC90, 24 h, RPMI
[14] = read-out: MIC C. glabrata DSMZ 11226, MIC90, 24 h, RPMI

SMILES | MIC S. aureus ATCC 25923 ([1]; MIC90, 24 h, MHB2) [µg/mL] | MIC [1, 7] [µg/mL] | IC50 ([2]; MTT, 24 h incubation) [µg/mL] | Number of Revertants ([3]; concentration 4 µg/plate) | Number of Revertants ([3]; concentration 20 µg/plate) | Number of Revertants ([3]; concentration 100 µg/plate) | Number of Revertants ([3]; concentration 500 µg/plate) | Number of Revertants ([3]; concentration 2000 µg/plate) | MIC (Escherichia coli K12; [8]) [µg/mL] | MIC E. coli K12 (Escherichia coli K12; MIC90, 24 h, MHB2) [µg/mL] | MIC [4, 9] [µg/mL] | MIC C. albicans ATCC 10231 ([4]; MIC90, 24 h, RPMI) [µg/mL] | MIC C. glabrata DSMZ 11226 ([5]; MIC90, 24 h, RPMI) [µg/mL] | MIC [5, 10] [µg/mL] | MIC [1, 11] [µg/mL] | IC50 ([2]; 24 h) [µg/mL] | MIC (Escherichia coli K12; [12]) [µg/mL] | Solubility in water [6] | MIC [4, 13] [µg/mL] | MIC [5, 14] [µg/mL]
NC(=O)c1ccc[n+](C2COC3C2OCC3[n+]2cccc(C(N)=O)c2)c1 [QAS 5, N,N’-(1,4:3,6-Dianhydro-2,5-dideoxy-L-iditol-2,5-diyl)-bis[(3-carboxamide)pyridinium] Ditrifluoromethanesulfonate] | >4096 | > 4000 | > 100 | 14.3 ± 5.5 | 8.0 ± 3.5 | 12.0 ± 2.0 | 12.7 ± 2.5 | 11.0 ± 1.7 | > 4000 | >4096 | > 4000 | >4096 | >4096 | > 4000 |  |  |  |  |  | 
c1cc[n+](C2COC3C2OCC3[n+]2ccccc2)cc1 (stereo not drawn) [QAS 3] | >4096 | > 4000 | > 100 | 7.3 ± 2.5 | 11.0 ± 1.0 | 10.6 ± 2.1 | 8.7 ± 1.5 | 7.3 ± 2.5 | > 4000 | >4096 | > 4000 | >4096 | >4096 | > 4000 |  |  |  |  |  | 
CN(C)c1cc[n+](C2COC3C2OCC3[n+]2ccc(N(C)C)cc2)cc1 (stereo not drawn) [QAS 4] | >4096 | > 4000 | > 100 | 8.3 ± 0.6 | 9.7 ± 1.5 | 10.0 ± 2.6 | 7.0 ± 3.5 | 6.0 ± 2.6 | > 4000 | >4096 | > 4000 | >4096 | >4096 | > 4000 |  |  |  |  |  | 
CCCCCC[N+](C)(C)C1COC2C1OCC2[N+](C)(C)CCCCCC [QAS 8, N,N’-(1,4:3,6-Dianhydro-2,5-dideoxy-L-iditol-2,5-diyl)-bis(N,N-dimethyl-N-hexylammonium) Ditrifluoromethanesulfonate] | 2048 |  |  | 14.7 ± 5.1 | 15.7 ± 1.5 | 11.0 ± 7.5 | 12.3 ± 3.5 | 12.7 ± 3.2 |  | >4096 |  |  | 2048 |  | > 4000 | > 100 | > 4000 | lower solubility in water | > 4000 | > 4000
Cn1cc[n+](C2COC3C2OCC3[n+]2ccn(C)c2)c1 [QAS 6, N,N’-(1,4:3,6-Dianhydro-2,5-dideoxy-L-iditol-2,5-diyl)-bis(N-methylimidazolium) Ditrifluoromethanesulfonate] | >4096 | > 4000 | > 100 | 13.3 ± 3.2 | 10.0 ± 2.0 | 9.0 ± 3.6 | 16.0 ± 6.2 | 13.7 ± 2.9 | > 4000 | >4096 | > 4000 | >4096 | >4096 | > 4000 |  |  |  |  |  | 
C[N+](C)(C)C1COC2C1OCC2[N+](C)(C)C (stereo not drawn) [QAS 7] | >4096 |  |  | 11.0 ± 3.0 | 10.7 ± 4.9 | 11.3 ± 3.5 | 13.7 ± 1.5 | 11.3 ± 3.2 |  | >4096 |  | >4096 | >4096 |  | > 4000 | > 100 | > 4000 |  | > 4000 | > 4000
